Assay: Inhibition of spontaneous nystagmus produced by unilateral destruction of the labyrinth (anti-vertigo action)
Format: in vivo
Settings: Felis catus, iv; cats, 6 mg/kg injected intravenously; read-out: Effect of compounds on the nystagmus expressed as inhibitory percentage
Procedure: (1) It is well known that vertigo resulting from the disturbance of the peripheral labyrinth is accompanied by nystagmus. So, we acutely produced the spontaneous nystagmus by unilateral destruction of the labyrinth in cats and used it as an experimental model of vertigo. a pair of Ag--AgCl cup electrodes was placed laterally to both orbits and an indifferent electrode on the forehead. The nystagmus was recorded through an amplifier. The inhibitory effect of the compounds on the nystagmus was expressed by [formula] where A is the frequency of the nystagmus in ten seconds before administration of the compounds and B is the frequency of the nystagmus at the maximum inhibitory point after administration. The duration of the effect was also measured. Compounds dissolved in saline were injected into the femoral vein. Betahistine and diphenidol were used as standard drugs.
A: Doses of compounds injected intraveneously.
B: Effect of compounds on the nystagmus expressed as inhibitory
C: Duration of the effect of compounds

Compound | inhibition at 6 mg/kg [%]
C=CCN1CCc2ncccc2C1 [Compound 12, 5,6,7,8-tetrahydro-6-allyl-1,6-naphtyridine] | 90
CNCCc1ccccn1 [betahistine, reference compound] | 55

Same assay, conditions: Felis catus, iv; cats, 12 mg/kg injected intravenously; read-out: Effect of compounds on the nystagmus expressed as inhibitory percentage

Compound | inhibition at 12 mg/kg [%]
CCCCCC=CCN1CCc2ncccc2C1 [Compound 19] | 65
C(=C\c1ccccc1)/CN1CCc2ncccc2C1 [Compound 58, 5,6,7,8-tetrahydro-6-cinnamyl-1,6-naphthyridine] | 53
c1ccc(CN2CCc3ncccc3C2)cc1 [Compound 31] | 57
CCCCCN1CCc2ncccc2C1 [Compound 6, 5,6,7,8-tetrahydro-6-n-amyl-1,6-naphthyridine] | 86
c1ccc(OCCCN2CCc3ncccc3C2)cc1 [Compound 27] | 90
CC(C)CCN1CCc2ncccc2C1 [Compound 7] | 85
C=CCN1CCc2ncccc2C1 [Compound 12, 5,6,7,8-tetrahydro-6-allyl-1,6-naphtyridine] | 98
c1cnc2c(c1)CN(CC1CCC1)CC2 [Compound 23] | 83
CCCCCCCN1CCc2ncccc2C1 [Compound 9] | 79
CNCCc1ccccn1 [betahistine, reference compound] | 80
c1ccc(CCN2CCc3ncccc3C2)cc1 [Compound 55] | 92
CCCCCCN1CCc2ncccc2C1 [Compound 8] | 88
c1ccc(CCCN2CCc3ncccc3C2)cc1 [Compound 57] | 97
C=CCCN1CCc2ncccc2C1 [Compound 14, 5,6,7,8-tetrahydro-6-(3-butenyl)-1,6-naphthyridine] | 77

Same assay, conditions: cats, 6 mg/kg injected intravenously

Compound | Duration of the effect of compounds (nystagmus) [min]
C=CCN1CCc2ncccc2C1 [Compound 12, 5,6,7,8-tetrahydro-6-allyl-1,6-naphtyridine] | 40
CNCCc1ccccn1 [betahistine, reference compound] | 5

Same assay, conditions: cats, 12 mg/kg injected intravenously

Compound | Duration of the effect of compounds (nystagmus) [min]
CCCCCC=CCN1CCc2ncccc2C1 [Compound 19] | 25
C(=C\c1ccccc1)/CN1CCc2ncccc2C1 [Compound 58, 5,6,7,8-tetrahydro-6-cinnamyl-1,6-naphthyridine] | 35
c1ccc(CN2CCc3ncccc3C2)cc1 [Compound 31] | 9
CCCCCN1CCc2ncccc2C1 [Compound 6, 5,6,7,8-tetrahydro-6-n-amyl-1,6-naphthyridine] | 10
c1ccc(OCCCN2CCc3ncccc3C2)cc1 [Compound 27] | 30
CC(C)CCN1CCc2ncccc2C1 [Compound 7] | 6
C=CCN1CCc2ncccc2C1 [Compound 12, 5,6,7,8-tetrahydro-6-allyl-1,6-naphtyridine] | 50
c1cnc2c(c1)CN(CC1CCC1)CC2 [Compound 23] | 8
CCCCCCCN1CCc2ncccc2C1 [Compound 9] | 10
CNCCc1ccccn1 [betahistine, reference compound] | 8
c1ccc(CCN2CCc3ncccc3C2)cc1 [Compound 55] | 5
CCCCCCN1CCc2ncccc2C1 [Compound 8] | 10
c1ccc(CCCN2CCc3ncccc3C2)cc1 [Compound 57] | 10
C=CCCN1CCc2ncccc2C1 [Compound 14, 5,6,7,8-tetrahydro-6-(3-butenyl)-1,6-naphthyridine] | 28

Assay: Acute toxicity (LD50) by intraperitoneal injection
Settings: mouse, in vivo, ip; male mice, intraperitoneal injection (Table 3)
Procedure: LD50 values of the compounds by intraperitoneal injection in mice were determined.

Compound | LD50 [mg/kg]
CCCCCC=CCN1CCc2ncccc2C1 [Compound 19] | 304
C(=C\c1ccccc1)/CN1CCc2ncccc2C1 [Compound 58, 5,6,7,8-tetrahydro-6-cinnamyl-1,6-naphthyridine] | 263
c1ccc(CN2CCc3ncccc3C2)cc1 [Compound 31] | 262
CCCCCN1CCc2ncccc2C1 [Compound 6, 5,6,7,8-tetrahydro-6-n-amyl-1,6-naphthyridine] | 165
c1ccc(OCCCN2CCc3ncccc3C2)cc1 [Compound 27] | 208
CC(C)CCN1CCc2ncccc2C1 [Compound 7] | 219
C=CCN1CCc2ncccc2C1 [Compound 12, 5,6,7,8-tetrahydro-6-allyl-1,6-naphtyridine] | 208
c1cnc2c(c1)CN(CC1CCC1)CC2 [Compound 23] | 214
CCCCCCCN1CCc2ncccc2C1 [Compound 9] | 208
CNCCc1ccccn1 [betahistine, reference compound] | 864
c1ccc(CCN2CCc3ncccc3C2)cc1 [Compound 55] | 219
CCCCCCN1CCc2ncccc2C1 [Compound 8] | 194
c1ccc(CCCN2CCc3ncccc3C2)cc1 [Compound 57] | 159
C=CCCN1CCc2ncccc2C1 [Compound 14, 5,6,7,8-tetrahydro-6-(3-butenyl)-1,6-naphthyridine] | 239

Same assay, conditions: mouse, in vivo, ip; mice, intraperitoneal injection (Table 4)

Compound | LD50 [mg/kg]
CCCOc1cc(CN2CCc3ncccc3C2)ccc1OC [Compound 49] | 174
Clc1ccc(CN2CCc3ncccc3C2)cc1Cl [Compound 44] | 270
CC(C)c1ccc(CN2CCc3ncccc3C2)cc1 [Compound 37] | 300
Cc1ccc(CN2CCc3ncccc3C2)cc1 [Compound 34] | 518
Cc1ccc(C)c(C=CCN2CCc3ncccc3C2)c1 [Compound 72] | 242
Clc1ccc(C=CCN2CCc3ncccc3C2)cc1Cl [Compound 71] | 199
Clc1ccc(C=CCN2CCc3ncccc3C2)c(Cl)c1 [Compound 70] | 220
CC(C)=CCC/C(C)=C/CN1CCc2ncccc2C1 [Compound 20] | 292
COc1ccc(CN2CCc3ncccc3C2)cc1OC [Compound 46, 5,6,7,8-tetrahydro-6-(3,4-dimethoxybenzyl)-1,6-naphthyridine] | 262
CCCOc1ccc(CN2CCc3ncccc3C2)cc1OCCC [Compound 50] | 200
CC(C)c1cccc(CN2CCc3ncccc3C2)c1 [Compound 36] | 368
CCCCCCCCCCN1CCc2ncccc2C1 [Compound 11] | 156

Assay: Cerebral vasodilating action: vertebral arterial flow, intra-arterial injection
Format: in vivo
Settings: Canis lupus familiaris; dogs, 1 mg intraarterially; read-out: Percent increase in vertebral arterial flow when injected intraarterially
Procedure: A: Percent increase in vertebral arterial flow when injected
intraarterially (1 mg) to dogs.
(1) For the experimental evaluation of cerebral vasodilating action, the canine vertebral arterial preparation was used. The carotid arterial blood was led to the vertebral artery by a short extracorporeal loop. The vertebral arterial flow was measured by an electromagnetic flow transducer inserted in the circuit. The action of the compounds on the vertebral arterial flow was expressed by percent increase when 1 mg of each compound was injected intra-arterially.

Compound | change in vivo at 1 mg [%]
CCCOc1cc(CN2CCc3ncccc3C2)ccc1OC [Compound 49] | 93
C(=C\c1ccccc1)/CN1CCc2ncccc2C1 [Compound 58, 5,6,7,8-tetrahydro-6-cinnamyl-1,6-naphthyridine] | 81
Clc1ccc(CN2CCc3ncccc3C2)cc1Cl [Compound 44] | 107
Clc1ccccc1C=CCN1CCc2ncccc2C1 [Compound 61] | 84
c1ccc(CN2CCc3ncccc3C2)cc1 [Compound 31] | 90
O=[N+]([O-])c1ccccc1C=CCN1CCc2ncccc2C1 [Compound 67] | 75
CC(C)c1ccc(CN2CCc3ncccc3C2)cc1 [Compound 37] | 110
Cc1ccc(CN2CCc3ncccc3C2)cc1 [Compound 34] | 93
CCCCOc1ccc(CN2CCc3ncccc3C2)cc1OCCCC [Compound 51] | 77
Cc1ccc(C)c(C=CCN2CCc3ncccc3C2)c1 [Compound 72] | 92
Clc1ccc(C=CCN2CCc3ncccc3C2)cc1Cl [Compound 71] | 116
Clc1ccc(C=CCN2CCc3ncccc3C2)c(Cl)c1 [Compound 70] | 158
CCCCCCCN1CCc2ncccc2C1 [Compound 9] | 78
CC(C)(C)c1ccc(CN2CCc3ncccc3C2)cc1 [Compound 38] | 78
CC(C)=CCC/C(C)=C/CN1CCc2ncccc2C1 [Compound 20] | 69
COc1ccc(CN2CCc3ncccc3C2)cc1OC [Compound 46, 5,6,7,8-tetrahydro-6-(3,4-dimethoxybenzyl)-1,6-naphthyridine] | 99
Clc1ccc(CN2CCc3ncccc3C2)cc1 [Compound 33] | 75
CCCOc1ccc(CN2CCc3ncccc3C2)cc1OCCC [Compound 50] | 79
CC(C)c1cccc(CN2CCc3ncccc3C2)c1 [Compound 36] | 100
CNCCc1ccccn1 [betahistine, reference compound] | 90
CCCCCCN1CCc2ncccc2C1 [Compound 8] | 67
CCc1ccc(CN2CCc3ncccc3C2)cc1 [Compound 35] | 56
CCCCCCCCCCN1CCc2ncccc2C1 [Compound 11] | 99

Assay: not given
Settings: dog, in vivo, iv, 1 mg/kg

Compound | Changes in heart rate when injected intravenously | Changes in systemic blood pressure when injected intravenously
CCCOc1cc(CN2CCc3ncccc3C2)ccc1OC [Compound 49] | +24 Δ beats/min | -11.6 Δ mmHg
CCCCOc1ccc(CN2CCc3ncccc3C2)cc1OCCCC [Compound 51] | 0 Δ beats/min | 0 Δ mmHg
CCCOc1ccc(CN2CCc3ncccc3C2)cc1OCCC [Compound 50] | +16 Δ beats/min | -10.0 Δ mmHg
CNCCc1ccccn1 [betahistine, reference compound] | +52 Δ beats/min | -100.0 Δ mmHg

Assay: Effect on the hexobarbital-induced sleeping time
Settings: male mice, 50 mg/kg subcutaneously, 15 min prior to sodium hexobarbital i.p.
Procedure: Groups consisted of 10 male-mice were administered the compounds or saline subcutaneously 15 min. prior to an intraperitoneal injection of sodium hexobarbital. Sleeping time for each animal in a group was measured. The averaged value of sleeping time in each group was calculated. The action of the sleeping time was expressed by the percentage of the sleeping time in the compound-treated groups to that in the saline-treated group.
D: Sleeping time of the compound (50 mg/kg, subcutaneously)treated groups
expressd as percentage to that of the control group.

Compound | Sleeping time of the compound treated groups expressed as percentage to that of the control group [%]
C=CCN1CCc2ncccc2C1 [Compound 12, 5,6,7,8-tetrahydro-6-allyl-1,6-naphtyridine] | 132.5

Assay: Effects of intravenous injection on mean arterial pressure, heart rate and vertebral arterial flow in anesthetized dogs
Settings: Canis lupus familiaris, iv, read-out: Percent increase in vertebral arterial flow when injected intravenously
Procedure: Pressure in the carotid artery was measured by a pressure transducer and mean arterial pressure was obtained by electrical integration. Heart rate was obtained by a cardiotachometer, triggered by a signal from the pressure pulse. The vertebral arterial flow was measured by fitting an electromagnetic flow transducer. The action on systemic mean arterial pressure, heart rate and vertebral arterial flow were represented by Δ mmHg, Δ beats/min and percent increase.

Compound | change in vivo at 1 mg/kg [%]
CCCOc1cc(CN2CCc3ncccc3C2)ccc1OC [Compound 49] | 21.2
C(=C\c1ccccc1)/CN1CCc2ncccc2C1 [Compound 58, 5,6,7,8-tetrahydro-6-cinnamyl-1,6-naphthyridine] | 22.2
Clc1ccc(CN2CCc3ncccc3C2)cc1Cl [Compound 44] | 30.8
Clc1ccccc1C=CCN1CCc2ncccc2C1 [Compound 61] | 29.2
c1ccc(CN2CCc3ncccc3C2)cc1 [Compound 31] | 36
O=[N+]([O-])c1ccccc1C=CCN1CCc2ncccc2C1 [Compound 67] | 40
CC(C)c1ccc(CN2CCc3ncccc3C2)cc1 [Compound 37] | 33.3
Cc1ccc(CN2CCc3ncccc3C2)cc1 [Compound 34] | 18
CCCCOc1ccc(CN2CCc3ncccc3C2)cc1OCCCC [Compound 51] | 16.7
Cc1ccc(C)c(C=CCN2CCc3ncccc3C2)c1 [Compound 72] | 40
Clc1ccc(C=CCN2CCc3ncccc3C2)cc1Cl [Compound 71] | 44.4
Clc1ccc(C=CCN2CCc3ncccc3C2)c(Cl)c1 [Compound 70] | 60
CCCCCCCN1CCc2ncccc2C1 [Compound 9] | 15.5
CC(C)(C)c1ccc(CN2CCc3ncccc3C2)cc1 [Compound 38] | 28.6
CC(C)=CCC/C(C)=C/CN1CCc2ncccc2C1 [Compound 20] | 20
COc1ccc(CN2CCc3ncccc3C2)cc1OC [Compound 46, 5,6,7,8-tetrahydro-6-(3,4-dimethoxybenzyl)-1,6-naphthyridine] | 50
Clc1ccc(CN2CCc3ncccc3C2)cc1 [Compound 33] | 30
CCCOc1ccc(CN2CCc3ncccc3C2)cc1OCCC [Compound 50] | 30.6
CC(C)c1cccc(CN2CCc3ncccc3C2)c1 [Compound 36] | 22
CNCCc1ccccn1 [betahistine, reference compound] | 14.3
CCCCCCN1CCc2ncccc2C1 [Compound 8] | 20.1
CCc1ccc(CN2CCc3ncccc3C2)cc1 [Compound 35] | 27.3
CCCCCCCCCCN1CCc2ncccc2C1 [Compound 11] | 25

Same assay, conditions: anesthetized dogs, 1 mg/kg intravenously

Compound | Changes in heart rate when injected intravenously | Changes in systemic blood pressure when injected intravenously
C(=C\c1ccccc1)/CN1CCc2ncccc2C1 [Compound 58, 5,6,7,8-tetrahydro-6-cinnamyl-1,6-naphthyridine] | +40 Δ beats/min | -13.3 Δ mmHg
Clc1ccc(CN2CCc3ncccc3C2)cc1Cl [Compound 44] | +32 Δ beats/min | -16.7 Δ mmHg
Clc1ccccc1C=CCN1CCc2ncccc2C1 [Compound 61] | +24 Δ beats/min | -20.0 Δ mmHg
c1ccc(CN2CCc3ncccc3C2)cc1 [Compound 31] | +16 Δ beats/min | -12.0 Δ mmHg
O=[N+]([O-])c1ccccc1C=CCN1CCc2ncccc2C1 [Compound 67] | +16 Δ beats/min | -31.7 Δ mmHg
CC(C)c1ccc(CN2CCc3ncccc3C2)cc1 [Compound 37] | – | -13.3 Δ mmHg
Cc1ccc(CN2CCc3ncccc3C2)cc1 [Compound 34] | +8 Δ beats/min | -10.0 Δ mmHg
Cc1ccc(C)c(C=CCN2CCc3ncccc3C2)c1 [Compound 72] | +48 Δ beats/min | -38.3 Δ mmHg
Clc1ccc(C=CCN2CCc3ncccc3C2)cc1Cl [Compound 71] | +40 Δ beats/min | -38.3 Δ mmHg
Clc1ccc(C=CCN2CCc3ncccc3C2)c(Cl)c1 [Compound 70] | +16 Δ beats/min | -11.7 Δ mmHg
CCCCCCCN1CCc2ncccc2C1 [Compound 9] | +8 Δ beats/min | -20.0 Δ mmHg
CC(C)(C)c1ccc(CN2CCc3ncccc3C2)cc1 [Compound 38] | – | -11.7 Δ mmHg
CC(C)=CCC/C(C)=C/CN1CCc2ncccc2C1 [Compound 20] | +12 Δ beats/min | -11.7 Δ mmHg
COc1ccc(CN2CCc3ncccc3C2)cc1OC [Compound 46, 5,6,7,8-tetrahydro-6-(3,4-dimethoxybenzyl)-1,6-naphthyridine] | +32 Δ beats/min | -27.2 Δ mmHg
Clc1ccc(CN2CCc3ncccc3C2)cc1 [Compound 33] | +8 Δ beats/min | -23.5 Δ mmHg
CC(C)c1cccc(CN2CCc3ncccc3C2)c1 [Compound 36] | +8 Δ beats/min | -20.0 Δ mmHg
CCCCCCN1CCc2ncccc2C1 [Compound 8] | +8 Δ beats/min | -18.5 Δ mmHg
CCc1ccc(CN2CCc3ncccc3C2)cc1 [Compound 35] | +8 Δ beats/min | -21.7 Δ mmHg
CCCCCCCCCCN1CCc2ncccc2C1 [Compound 11] | +8 Δ beats/min | -5.0 Δ mmHg

— patent publication US4308273A, “1,6-Naphthyridine derivatives, and antidinic and cerebral circulation improver containing such derivatives” (Nippon Kayaku Kabushiki Kaisha, priority 1978, dated 1981)
